Assay results taken from patent US20220169639A1 (priority 2018, published 2022).

Columns and labels:
[1] = tested on: HBV (HBsAg) in HBV-infected PHH; assay: Cryopreserved primary human hepatocytes (PHH) HBV infection assay, extracellular HBsAg (CLIA); format: cell-based; details: Hepatitis B virus, Hepatocyte, 216 h, read-out: HBsAg IC50
Procedure: This assay is used to confirm the anti-HBV effect of the compounds in HBV PHH infection assay. Cryopreserved PHH (BioreclamationIVT, Lot YJM) was thawed at 37° C. and gently transferred into pre-warmed InVitroGRO HT medium (BioreclamationIVT, Cat. S03317). The mixture was centrifuged at 70 relative centrifugal force (RCF) for 3 minutes at RT, and the supernatant was discarded. Pre-warmed InVitroGRO CP medium (BioreclamationIVT, Cat #S03316) was added to the cell pellet to gently re-suspend cells. The cells were seeded at the density of 5.8×10^4 cells per well to collagen I coated 96-well plate (Gibco, Cat. A1142803) with the InVitroGRO CP medium. All plates were incubated at 37° C. with 5% CO2 and 85% humidity.
At 20 hours after plating, the medium was changed to PHH culture medium (Dulbecco's Modified Eagle Medium (DMEM)/F12 (1:1) (Gibco, Cat. 11320-033), 10% fetal bovine serum (Gibco Cat. 10099141), 100 U/mL penicillin, 100 μg/mL streptomycin (Gibco, Cat. 151401-122), 5 ng/mL human epidermal growth factor (Invitrogen Cat. PHG0311L), 20 ng/mL dexamethasone (Sigma, Cat. D4902) and 250 ng/mL human recombinant insulin (Gibco, Cat. 12585-014)). And the cells were incubated at 37° C. with 5% CO2 and 85% humidity for 4 hours. The medium was then changed to pre-warmed PHH culture medium containing 4% polyethylene glycol (PEG) MW8000 (Sigma, Cat. P1458-50ML) and 1% DMSO (Sigma, Cat. D2650). 5.8×10^6 genomic equivalents of HBV were added into the medium.
At 24 hours post-infection, the cells were gently washed with PBS and refreshed with PHH culture medium supplemented with 1% DMSO, and 0.25 mg/mL Matrix gel (Corning, Cat. 356237) at 200 μL per well. All plates were immediately placed in at 37° C. CO2 incubator. 24 hours later, serial dilutions of compounds made with DMSO were further diluted with the same culture medium (PHH culture medium supplemented with 1% DMSO and 0.25 mg/mL Matrix gel as described above) before they were added to the cells to reach desired final compound concentrations and 1% DMSO concentration. The medium containing the compounds were refreshed every three days.
At 9 days post-compound treatment, extracellular HBsAg level were measured with Chemiluminescence Immuno Assay (CLIA) kit (Autobio, HBsAg Quantitative CLIA). Extracellular HBV DNA was extracted by MagNA Pure 96 system (Roche) and then determined
HBsAg IC50 and HBV DNA IC50 values were derived from the dose-response curve using 4 parameter logistic curve fit method. The compounds of formula (I) have HBsAg IC50<20 μM, particularly <1 μM; and HBV DNA IC50<50 μM. Results of Cryopreserved PHH assay are given in TableBIO2.

[2] = tested on: HBeAg (surrogate marker for cccDNA) in HepDES19 cells; assay: Engineered HepDES19 primary screen assay (HBeAg ELISA); format: cell-based, HBV; details: Hepatitis B virus, 120 h, HBeAg in culture supernatant, 5 days incubation, read-out: IC50 (HepDES19 primary screen assay, inhibition of extracellular HBeAg level)
Procedure, shortened: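 HepDES19 cells pre-induced by Tet withdrawal for 8 days, frozen, then seeded and dosed after 24 h with half-log compound dilutions (1% DMSO final). After 5 days at 37 °C, HBeAg measured by ELISA and viability by CCK-8; IC50 from 4-parameter logistic fit.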

SMILES	IC50 [1] [µM]	IC50 [2] [µM]
O=C(O)C1CCN(CCCOc2cc(Br)ccc2-c2cc(=O)c3cccc(Cl)c3o2)C1 (stereo not shown) [Example 001, 1-[3-[5-bromo-2-(8-chloro-4-oxo-chromen-2-yl)phenoxy]propyl]pyrrolidine-3-carboxylic acid]	5.43	0.35
O=C(O)C1CN(CCCOc2cc(Br)ccc2-c2cc(=O)c3cccc(Cl)c3o2)CCO1 (stereo not shown) [Example 002, 4-[3-[5-bromo-2-(8-chloro-4-oxo-chromen-2-yl)phenoxy]propyl]morpholine-2-carboxylic acid]	4.01	0.25
O=C(O)[C@@H]1CCN(CCCOc2cc(Br)ccc2-c2cc(=O)c3cccc(Cl)c3o2)C1 [Example 005, (3R)-1-[3-[5-bromo-2-(8-chloro-4-oxo-chromen-2-yl)phenoxy]propyl]pyrrolidine-3-carboxylic acid]	8.34	8.93
O=C(O)C1CC(NCCCOc2cc(C(F)(F)F)ccc2-c2cc(=O)c3cccc(Cl)c3o2)C1 (stereo not shown) [Example 006, 3-[3-[2-(8-chloro-4-oxo-chromen-2-yl)-5-(trifluoromethyl)phenoxy]propylamino]cyclobutanecarboxylic acid]	3.82	4.68
O=C(O)C1CCC(NCCCOc2cc(C(F)(F)F)ccc2-c2cc(=O)c3cccc(Cl)c3o2)C1 (stereo not shown) [Example 007, 3-[3-[2-(8-chloro-4-oxo-chromen-2-yl)-5-(trifluoromethyl)phenoxy]propylamino]cyclopentanecarboxylic acid]	4.95	9.5
O=C(O)[C@@H]1CCN(CCCOc2cc(C(F)(F)F)ccc2-c2cc(=O)c3cccc(Cl)c3o2)C1 [Example 013, (3R)-1-[3-[2-(8-chloro-4-oxo-chromen-2-yl)-5-(trifluoromethyl)phenoxy]propyl]pyrrolidine-3-carboxylic acid]	7.35	4.23
O=C(O)[C@H]1CCN(CCCOc2cc(C(F)(F)F)ccc2-c2cc(=O)c3cccc(Cl)c3o2)C1 [Example 014, (3S)-1-[3-[2-(8-chloro-4-oxo-chromen-2-yl)-5-(trifluoromethyl)phenoxy]propyl]pyrrolidine-3-carboxylic acid]	5.08	0.37
CCOc1ccc(-c2cc(=O)c3cccc(Cl)c3o2)c(OCCCN2CC[C@H](C(=O)O)C2)c1 [Example 015, (3S)-1-[3-[2-(8-chloro-4-oxo-chromen-2-yl)-5-ethoxy-phenoxy]propyl]pyrrolidine-3-carboxylic acid]	9.75	7.85
COc1cc(-c2cc(=O)c3cccc(Cl)c3o2)c(OCCCN2CC[C@@H](C(=O)O)C2)cc1Br [Example 016, (3R)-1-[3-[5-bromo-2-(8-chloro-4-oxo-chromen-2-yl)-4-methoxy-phenoxy]propyl]pyrrolidine-3-carboxylic acid]	7.64	0.89
COc1cc(-c2cc(=O)c3cccc(Cl)c3o2)c(OCCCN2CC[C@H](C(=O)O)C2)cc1Br [Example 017, (3S)-1-[3-[5-bromo-2-(8-chloro-4-oxo-chromen-2-yl)-4-methoxy-phenoxy]propyl]pyrrolidine-3-carboxylic acid]	3.42	0.34
O=C(O)C1CN(CCCOc2cc(C(F)(F)F)ccc2-c2cc(=O)c3cccc(Cl)c3o2)CCO1 (stereo not shown) [Example 018, 4-[3-[2-(8-chloro-4-oxo-chromen-2-yl)-5-(trifluoromethyl)phenoxy]propyl]morpholine-2-carboxylic acid]	5.13	0.41
O=C(O)C1CN(CCOc2cc(Br)ccc2-c2cc(=O)c3cccc(Cl)c3o2)C1 [Example 019, 1-[2-[5-bromo-2-(8-chloro-4-oxo-chromen-2-yl)phenoxy]ethyl]azetidine-3-carboxylic acid]	7.13	0.57
O=C(O)C1CCCN1CCOc1cc(Br)ccc1-c1cc(=O)c2cccc(Cl)c2o1 (stereo not shown) [Example 020, 1-[2-[5-bromo-2-(8-chloro-4-oxo-chromen-2-yl)phenoxy]ethyl]pyrrolidine-2-carboxylic acid]	8.36	0.87
O=C(O)C1CCN(CCOc2cc(Br)ccc2-c2cc(=O)c3cccc(Cl)c3o2)CC1 [Example 022, 1-[2-[5-bromo-2-(8-chloro-4-oxo-chromen-2-yl)phenoxy]ethyl]piperidine-4-carboxylic acid]	6.8	1.31
O=C(O)C1CN(CCOc2cc(Br)ccc2-c2cc(=O)c3cccc(Cl)c3o2)CCO1 (stereo not shown) [Example 023, 4-[2-[5-bromo-2-(8-chloro-4-oxo-chromen-2-yl)phenoxy]ethyl]morpholine-2-carboxylic acid]	4.95	0.13
O=C(O)C1CC2CCC(C1)N2CCOc1cc(Br)ccc1-c1cc(=O)c2cccc(Cl)c2o1 (stereo not shown) [Example 025, 8-[2-[5-bromo-2-(8-chloro-4-oxo-chromen-2-yl)phenoxy]ethyl]-8-azabicyclo[3.2.1]octane-3-carboxylic acid]	7.63	0.79
O=C(O)[C@@H]1CCN(CCOc2cc(Br)ccc2-c2cc(=O)c3c(C(F)(F)F)ccc(Cl)c3o2)C1 [Example 041, (3R)-1-[2-[5-bromo-2-[8-chloro-4-oxo-5-(trifluoromethyl)chromen-2-yl]phenoxy]ethyl]pyrrolidine-3-carboxylic acid]	5.48	0.03
O=C(O)[C@H]1CCN(CCOc2cc(Br)ccc2-c2cc(=O)c3c(C(F)(F)F)ccc(Cl)c3o2)C1 [Example 042, (3S)-1-[2-[5-bromo-2-[8-chloro-4-oxo-5-(trifluoromethyl)chromen-2-yl]phenoxy]ethyl]pyrrolidine-3-carboxylic acid]	7.3	0.05
O=C(O)[C@@H]1CCN(CCOCCOc2cc(Br)ccc2-c2cc(=O)c3cccc(Cl)c3o2)C1 [Example 047, (3R)-1-[2-[2-[5-bromo-2-(8-chloro-4-oxo-chromen-2-yl)phenoxy]ethoxy]ethyl]pyrrolidine-3-carboxylic acid]	2.83	0.99
O=C(O)C1CN(CCOCCOc2cc(Br)ccc2-c2cc(=O)c3cccc(Cl)c3o2)CCO1 (stereo not shown) [Example 049, 4-[2-[2-[5-bromo-2-(8-chloro-4-oxo-chromen-2-yl)phenoxy]ethoxy]ethyl]morpholine-2-carboxylic acid]	7.81	2.81
O=C(O)C1COCCN1CCOc1cc(Br)ccc1-c1cc(=O)c2cccc(Cl)c2o1 (stereo not shown) [Example 052, 4-[2-[5-bromo-2-(8-chloro-4-oxo-chromen-2-yl)phenoxy]ethyl]morpholine-3-carboxylic acid]	5.82	0.08
CS(=O)(=O)NC(=O)[C@@H]1CCN(CCOc2cc(Br)ccc2-c2cc(=O)c3cccc(Cl)c3o2)C1 [Example 064, (3R)-1-[2-[5-bromo-2-(8-chloro-4-oxo-chromen-2-yl)phenoxy]ethyl]-N-methylsulfonyl-pyrrolidine-3-carboxamide]	6.41	0.08
CS(=O)(=O)NC(=O)[C@H]1CCN(CCCOc2cc(C(F)(F)F)ccc2-c2cc(=O)c3cccc(Cl)c3o2)C1 [Example 066, (3S)-1-[3-[2-(8-chloro-4-oxo-chromen-2-yl)-5-(trifluoromethyl)phenoxy]propyl]-N-methylsulfonyl-pyrrolidine-3-carboxamide]	9.03	2.79
